{
  "source": "ChEMBL document CHEMBL2176918",
  "about": "“Design and optimization of pyrazinecarboxamide-based inhibitors of diacylglycerol acyltransferase 1 (DGAT1) leading to a clinical candidate dimethylpyrazinecarboxamide phenylcyclohexylacetic acid (AZD7687)” (J Med Chem, 2012)",
  "key": {"[1]": {"assay": "Lipophilicity, log D of the compound at pH 7.4 by chromatographic method", "details": "buffer; call rule not given here"}, "[2]": {"assay": "Half life in Han-Wistar rat at 2.54 to 5.4 uM/kg, po", "assay_type": "ADME, organism-based", "details": "in vivo"}, "[3]": {"assay": "Intrinsic clearance in rat hepatocytes assessed as parent compound disappearance at 1 uM per 10^6 cells", "assay_type": "ADME, cell-based, Hepatocyte", "details": "read-out: CLH"}, "[4]": {"assay": "Fraction unbound in human plasma at 37 degC by LC-UV/MS method based equilibrium dialysis method"}, "[5]": {"assay": "Apparent permeability from apical to basolateral side in human Caco2 cells at pH 7.4", "assay_type": "ADME, cell-based", "details": "Caco-2, pH 7.4"}, "[6]": {"target": "T1, Diacylglycerol O-acyltransferase 1 (Homo sapiens, UniProt O75907)", "T1 sequence (O75907 whole entry)": "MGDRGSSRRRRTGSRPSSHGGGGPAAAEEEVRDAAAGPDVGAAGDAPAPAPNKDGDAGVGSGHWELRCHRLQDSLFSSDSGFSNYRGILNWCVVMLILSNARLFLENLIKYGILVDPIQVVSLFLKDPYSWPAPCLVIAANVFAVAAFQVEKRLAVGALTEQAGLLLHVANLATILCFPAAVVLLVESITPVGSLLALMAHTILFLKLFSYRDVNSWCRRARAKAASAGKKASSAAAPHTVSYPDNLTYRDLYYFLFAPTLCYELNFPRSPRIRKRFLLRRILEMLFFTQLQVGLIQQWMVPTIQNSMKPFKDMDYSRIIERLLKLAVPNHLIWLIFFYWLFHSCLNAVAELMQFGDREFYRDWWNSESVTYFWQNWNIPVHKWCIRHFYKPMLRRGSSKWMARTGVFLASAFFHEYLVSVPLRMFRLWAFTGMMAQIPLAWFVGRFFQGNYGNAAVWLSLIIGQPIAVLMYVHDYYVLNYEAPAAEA", "description": "(§1) Inhibition of human recombinant DGAT1 expressed in Sf9 cells by liquid scintillography"}, "[7]": {"assay": "Solubility in 0.1 M phosphate buffer at pH 7.4 at 25 degC incubated for 24 hrs"}, "[8]": {"assay": "Oral bioavailability in rat", "details": "in vivo"}, "[9]": {"target": "T1, Diacylglycerol O-acyltransferase 1", "details": "sf9", "description": "as §1"}, "[10]": {"assay": "Stability in pH 7.8 buffer assessed as acyl migration incubated for 45 mins", "assay_type": "physicochemical", "details": "pH 7.8, 0.75 h"}, "[11]": {"assay": "Stability in pH 7.8 buffer assessed as compound degradation incubated for 45 mins", "assay_type": "physicochemical", "details": "pH 7.8, 0.75 h"}, "[12]": {"assay": "Apparent permeability from apical to basolateral side in MDCK cells at pH 7.4", "details": "dog"}, "[13]": {"target": "T2, Sterol O-acyltransferase 1 (Homo sapiens, UniProt P35610)", "T2 sequence (P35610 whole entry)": "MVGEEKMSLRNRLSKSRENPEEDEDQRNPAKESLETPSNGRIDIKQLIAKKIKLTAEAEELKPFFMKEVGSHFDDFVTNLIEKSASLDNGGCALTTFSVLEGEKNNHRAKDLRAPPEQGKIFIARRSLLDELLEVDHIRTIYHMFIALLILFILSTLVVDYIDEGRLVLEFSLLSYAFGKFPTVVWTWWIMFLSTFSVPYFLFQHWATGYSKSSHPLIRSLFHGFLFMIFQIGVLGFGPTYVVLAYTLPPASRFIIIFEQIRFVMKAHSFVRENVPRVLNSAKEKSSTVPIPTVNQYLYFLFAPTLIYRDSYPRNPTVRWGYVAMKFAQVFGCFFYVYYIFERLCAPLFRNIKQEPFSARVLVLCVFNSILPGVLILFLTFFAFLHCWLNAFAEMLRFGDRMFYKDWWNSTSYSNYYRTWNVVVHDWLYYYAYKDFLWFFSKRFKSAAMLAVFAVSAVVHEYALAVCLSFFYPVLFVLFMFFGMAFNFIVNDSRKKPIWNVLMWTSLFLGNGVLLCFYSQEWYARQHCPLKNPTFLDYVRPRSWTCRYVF", "description": "Inhibition of human ACAT1 by liquid scintillography"}},
  "data": [
    {"smiles": "Cc1ncc(C(N)=S)nc1-c1ccc([C@H]2CC[C@H](CC(=O)O)CC2)cc1", "values": [
      {"measurement": "chromatographic logD", "setting": "[1]", "result": 1.8}
    ]},
    {"smiles": "Cc1nc(C)c(-c2ccc([C@H]3CC[C@H](Cc4nnn[nH]4)CC3)cc2)nc1C(N)=O", "values": [
      {"measurement": "half-life", "setting": "[2]", "result": 9, "unit": "h"},
      {"measurement": "hepatocyte CLint at 1 µM", "setting": "[3]", "result": "< 2", "unit": "µL/min/1e6 cells"},
      {"measurement": "fraction unbound", "setting": "[4]", "result": 0.009}
    ]},
    {"smiles": "Cc1ccc(C(N)=O)nc1-c1ccc([C@H]2CC[C@H](CC(=O)O)CC2)cc1", "values": [
      {"measurement": "chromatographic logD", "setting": "[1]", "result": 1.3}
    ]},
    {"smiles": "NC(=O)C[C@H]1CC[C@H](c2ccc(-c3cncc(C(N)=O)n3)cc2)CC1", "values": [
      {"measurement": "Papp A→B", "setting": "[5]", "result": 13, "unit": "×10⁻⁶ cm/s"},
      {"measurement": "IC50", "setting": "[6]", "result": 1900, "unit": "nM"},
      {"measurement": "chromatographic logD", "setting": "[1]", "result": 0.9},
      {"measurement": "solubility at 24 h", "setting": "[7]", "result": "< 1", "unit": "µM"}
    ]},
    {"smiles": "Cc1nc(C)c(-c2ccc([C@H]3CC[C@H](CC(=O)NS(C)(=O)=O)CC3)cc2)nc1C(N)=O", "values": [
      {"measurement": "Papp A→B", "setting": "[5]", "result": 2, "unit": "×10⁻⁶ cm/s"},
      {"measurement": "IC50", "setting": "[6]", "result": 100, "unit": "nM"},
      {"measurement": "chromatographic logD", "setting": "[1]", "result": 0.9},
      {"measurement": "solubility at 24 h", "setting": "[7]", "result": 100, "unit": "µM"},
      {"measurement": "hepatocyte CLint at 1 µM", "setting": "[3]", "result": 17, "unit": "µL/min/1e6 cells"}
    ]},
    {"smiles": "Cc1nc(C)c(-c2ccc([C@H]3CC[C@H](CC(=O)NC(C)(C)C(=O)O)CC3)cc2)nc1C(N)=O", "values": [
      {"measurement": "Papp A→B", "setting": "[5]", "result": 0.71, "unit": "×10⁻⁶ cm/s"},
      {"measurement": "IC50", "setting": "[6]", "result": 110, "unit": "nM"},
      {"measurement": "chromatographic logD", "setting": "[1]", "result": 0.7},
      {"measurement": "solubility at 24 h", "setting": "[7]", "result": 86, "unit": "µM"},
      {"measurement": "bioavailability", "setting": "[8]", "result": 19, "unit": "%"},
      {"measurement": "fraction unbound", "setting": "[4]", "result": 0.078}
    ]},
    {"smiles": "Cc1nc(-c2ccccc2)c(C(N)=O)nc1-c1ccc([C@H]2CC[C@H](CC(=O)O)CC2)cc1", "values": [
      {"measurement": "IC50", "setting": "[6]", "result": "> 10000", "unit": "nM"},
      {"measurement": "chromatographic logD", "setting": "[1]", "result": 2}
    ]},
    {"smiles": "Cc1ncc(C(=O)NCc2ccccc2)nc1-c1ccc([C@H]2CC[C@H](CC(=O)O)CC2)cc1", "values": [
      {"measurement": "chromatographic logD", "setting": "[1]", "result": 2.7},
      {"measurement": "IC50", "setting": "[9]", "result": "Not Active"}
    ]},
    {"smiles": "CNC(=O)c1cnc(C)c(-c2ccc([C@H]3CC[C@H](CC(=O)O)CC3)cc2)n1", "values": [
      {"measurement": "chromatographic logD", "setting": "[1]", "result": 0.9},
      {"measurement": "IC50", "setting": "[9]", "result": "Not Active"}
    ]},
    {"smiles": "Cc1ncc(C(=O)N(C)C)nc1-c1ccc([C@H]2CC[C@H](CC(=O)O)CC2)cc1", "values": [
      {"measurement": "chromatographic logD", "setting": "[1]", "result": 0.7},
      {"measurement": "IC50", "setting": "[9]", "result": "Not Active"}
    ]},
    {"smiles": "NC(=O)c1cccc(-c2ccc([C@H]3CC[C@H](CC(=O)O)CC3)cc2)n1", "values": [
      {"measurement": "chromatographic logD", "setting": "[1]", "result": 0.8}
    ]},
    {"smiles": "NC(=O)c1nc(-c2ccc([C@H]3CC[C@H](CC(=O)O)CC3)cc2)cnc1N", "values": [
      {"measurement": "IC50", "setting": "[6]", "result": "> 10000", "unit": "nM"},
      {"measurement": "chromatographic logD", "setting": "[1]", "result": 0.5}
    ]},
    {"smiles": "Cc1nc(C)c(-c2ccc([C@H]3CC[C@H](CC(=O)O)CC3)c(F)c2)nc1C(N)=O", "values": [
      {"measurement": "chromatographic logD", "setting": "[1]", "result": 1.3}
    ]},
    {"smiles": "Cc1nc(C)c(-c2ccc([C@H]3CC[C@H](CC(=O)O[C@@H]4O[C@H](C(=O)O)[C@@H](O)[C@H](O)[C@H]4O)CC3)cc2)nc1C(N)=O", "values": [
      {"measurement": "Stability", "setting": "[10]", "result": "Stable"},
      {"measurement": "Stability", "setting": "[11]", "result": "Stable"}
    ]},
    {"smiles": "N=C(N)c1cncc(-c2ccc([C@H]3CC[C@H](CC(=O)O)CC3)cc2)n1", "values": [
      {"measurement": "IC50", "setting": "[6]", "result": "> 33000", "unit": "nM"},
      {"measurement": "chromatographic logD", "setting": "[1]", "result": "< 0"}
    ]},
    {"smiles": "Cc1nc(C)c(-c2ccc3c(c2)CC[C@]32CC[C@@H](CC(=O)O)CC2)nc1C(N)=O", "values": [
      {"measurement": "Papp A→B", "setting": "[12]", "result": 12, "unit": "×10⁻⁶ cm/s"},
      {"measurement": "IC50", "setting": "[6]", "result": 30, "unit": "nM"},
      {"measurement": "IC50", "setting": "[13]", "result": 2400, "unit": "nM"},
      {"measurement": "solubility at 24 h", "setting": "[7]", "result": 562, "unit": "µM"},
      {"measurement": "half-life", "setting": "[2]", "result": 7.5, "unit": "h"},
      {"measurement": "hepatocyte CLint at 1 µM", "setting": "[3]", "result": "< 2", "unit": "µL/min/1e6 cells"},
      {"measurement": "fraction unbound", "setting": "[4]", "result": 0.013}
    ]},
    {"smiles": "CCc1nc(C)c(-c2ccc([C@H]3CC[C@H](CC(=O)O)CC3)cc2)nc1C(N)=O", "values": [
      {"measurement": "chromatographic logD", "setting": "[1]", "result": 1.5}
    ]},
    {"smiles": "Cc1ncc(C(N)=O)nc1-c1ccc([C@H]2CC[C@H](CC(=O)O)CC2)cc1", "values": [
      {"measurement": "Papp A→B", "setting": "[5]", "result": 35, "unit": "×10⁻⁶ cm/s"},
      {"measurement": "IC50", "setting": "[6]", "result": 310, "unit": "nM"},
      {"measurement": "IC50", "setting": "[13]", "result": "> 33000", "unit": "nM"},
      {"measurement": "chromatographic logD", "setting": "[1]", "result": 0.3},
      {"measurement": "solubility at 24 h", "setting": "[7]", "result": "> 100", "unit": "µM"},
      {"measurement": "hepatocyte CLint at 1 µM", "setting": "[3]", "result": "< 6", "unit": "µL/min/1e6 cells"}
    ]},
    {"smiles": "Cc1ncc(C(=O)O)nc1-c1ccc([C@H]2CC[C@H](CC(=O)O)CC2)cc1", "values": [
      {"measurement": "chromatographic logD", "setting": "[1]", "result": "< 0"},
      {"measurement": "IC50", "setting": "[9]", "result": "Not Active"}
    ]},
    {"smiles": "CCc1nc(C)c(C(N)=O)nc1-c1ccc([C@H]2CC[C@H](CC(=O)O)CC2)cc1", "values": [
      {"measurement": "IC50", "setting": "[6]", "result": "> 9100", "unit": "nM"},
      {"measurement": "chromatographic logD", "setting": "[1]", "result": 1.7}
    ]},
    {"smiles": "NC(=O)c1cncc(-c2ccc([C@H]3CC[C@H](CCO)CC3)cc2)n1", "values": [
      {"measurement": "Papp A→B", "setting": "[5]", "result": 38, "unit": "×10⁻⁶ cm/s"},
      {"measurement": "IC50", "setting": "[6]", "result": 1200, "unit": "nM"},
      {"measurement": "chromatographic logD", "setting": "[1]", "result": 2.3},
      {"measurement": "solubility at 24 h", "setting": "[7]", "result": 3, "unit": "µM"},
      {"measurement": "hepatocyte CLint at 1 µM", "setting": "[3]", "result": 36, "unit": "µL/min/1e6 cells"},
      {"measurement": "fraction unbound", "setting": "[4]", "result": 0.028}
    ]},
    {"smiles": "Cc1nc(C)c(-c2ccc(C34CCC(CC(=O)O)(CC3)CC4)cc2)nc1C(N)=O", "values": [
      {"measurement": "chromatographic logD", "setting": "[1]", "result": 1.3}
    ]},
    {"smiles": "NC(=O)c1cncc(-c2ccc([C@H]3CC[C@H](CC(=O)O)CC3)cc2)c1", "values": [
      {"measurement": "chromatographic logD", "setting": "[1]", "result": 0}
    ]}
  ]
}
